According to patent US20260055102A1 (Redx Pharma Limited, priority 2022, published 2026):

Assays:
[1] = target: Recombinant human DDR1 (aa440-876 containing a GST tag) (Homo sapiens (Human), UniProt Q08345); test: LanthaScreen Eu Kinase Binding Assay DDR1; details: Kinase Tracer 178 5 nM, at least two independent replicates; for IC50: read-out: DDR1 pIC50 (converted)
Procedure, shortened: (§1)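 DDR1 (2.5 nM) or DDR2 (1.75 nM) was preincubated with compound 30 min at RT in 50 mM HEPES pH 7.3, 10 mM MgCl2, 1 mM EGTA, 0.01% Tween. Eu-anti-GST and Tracer 178 were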

[2] = target: Recombinant human DDR2 (aa427-855 containing a GST tag) (Homo sapiens (Human), UniProt Q16832); test: LanthaScreen Eu Kinase Binding Assay DDR2; details: Kinase Tracer 178 10 nM, at least two independent replicates; for IC50: read-out: DDR2 pIC50 (converted)
Procedure, shortened: as §1

Chain of Recombinant human DDR2 (aa427-855 containing a GST tag) (Q16832 427-855): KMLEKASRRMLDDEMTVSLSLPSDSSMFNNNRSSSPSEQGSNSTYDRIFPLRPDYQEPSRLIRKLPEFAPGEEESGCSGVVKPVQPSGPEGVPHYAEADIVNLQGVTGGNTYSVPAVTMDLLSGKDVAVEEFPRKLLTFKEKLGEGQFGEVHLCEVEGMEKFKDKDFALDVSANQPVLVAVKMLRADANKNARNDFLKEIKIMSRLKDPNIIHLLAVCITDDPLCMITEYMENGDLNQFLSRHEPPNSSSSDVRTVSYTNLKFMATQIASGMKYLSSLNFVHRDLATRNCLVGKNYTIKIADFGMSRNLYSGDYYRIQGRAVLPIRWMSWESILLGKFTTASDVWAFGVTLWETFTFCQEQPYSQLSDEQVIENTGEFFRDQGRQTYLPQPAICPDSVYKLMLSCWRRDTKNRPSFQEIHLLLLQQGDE
Chain of Recombinant human DDR1 (aa440-876 containing a GST tag) (Q08345 other isoform, or with tags, fused parts or gaps): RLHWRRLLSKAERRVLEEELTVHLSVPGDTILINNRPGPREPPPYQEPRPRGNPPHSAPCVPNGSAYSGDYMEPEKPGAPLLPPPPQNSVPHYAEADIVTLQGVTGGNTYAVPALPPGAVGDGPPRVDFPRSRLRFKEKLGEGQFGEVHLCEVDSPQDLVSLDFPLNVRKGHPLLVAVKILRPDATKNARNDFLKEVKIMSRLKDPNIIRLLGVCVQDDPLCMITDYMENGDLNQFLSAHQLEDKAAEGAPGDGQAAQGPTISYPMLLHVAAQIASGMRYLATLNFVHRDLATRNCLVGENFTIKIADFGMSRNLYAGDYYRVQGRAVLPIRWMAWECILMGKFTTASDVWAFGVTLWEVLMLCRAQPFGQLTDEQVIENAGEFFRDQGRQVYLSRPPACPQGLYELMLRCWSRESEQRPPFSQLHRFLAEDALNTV

DDR1 pIC50 [1]	IC50 [2] [nM]	DDR2 pIC50 [2]	IC50 [1] [nM]	Structure (SMILES)
A (pIC50>8)	10 to 100			Cc1cccc2c1n(-c1ccc(-c3cncc4c3cnn4C)nc1)c(=O)n2CC(=O)N1CCO[C@H](C(F)(F)F)C1 [Example 54, 4-methyl-3-[6-(1-methylpyrazolo[3,4-c]pyridin-4-yl)-3-pyridyl]-1-[2-oxo-2-[(2S)-2-(trifluoromethyl)morpholin-4-yl]ethyl]benzimidazol-2-one]
A (pIC50>8)	10 to 100			Cc1cccc2c1n(-c1ccc(-c3cncc4c3cnn4C)nc1)c(=O)n2CC(=O)N1CCC[C@H]1C(F)(F)F [Example 56, 4-methyl-3-[6-(1-methylpyrazolo[3,4-c]pyridin-4-yl)-3-pyridyl]-1-[2-oxo-2-[(2S)-2-(trifluoromethyl)pyrrolidin-1-yl]ethyl]benzimidazol-2-one]
A (pIC50>8)		C (7≥pIC50>6)		Cc1cccc2c1n(-c1ccc(-c3cncc4c3cnn4C)cn1)c(=O)n2CC(=O)N[C@@H](C)C(F)(F)F [Example 57, 2-[4-methyl-3-[5-(1-methylpyrazolo[3,4-c]pyridin-4-yl)-2-pyridyl]-2-oxo-benzimidazol-1-yl]-N-[(1S)-2,2,2-trifluoro-1-methyl-ethyl]acetamide]
	100 to 1000		10 to 100	Cc1cccc2c1n(-c1ccc(-c3cncc4c3cnn4C)cn1)c(=O)n2CC(=O)NCC(F)(F)F [Example 58]
A (pIC50>8)	10 to 100			Cc1cccc2c1n(-c1ccc(-c3cncc4c3cnn4C)cn1)c(=O)n2CC(=O)N1CCC[C@H]1C(F)(F)F [Example 59, 4-methyl-3-[5-(1-methylpyrazolo[3,4-c]pyridin-4-yl)-2-pyridyl]-1-[2-oxo-2-[(2S)-2-(trifluoromethyl)pyrrolidin-1-yl]ethyl]benzimidazol-2-one]
	100 to 1000		10 to 100	Cc1cccc2c1n(-c1ccc(-c3cncc4c3cnn4C)cn1)c(=O)n2CC(=O)N1CCO[C@@H](C(F)(F)F)C1 [Example 60, 4-methyl-3-[5-(1-methylpyrazolo[3,4-c]pyridin-4-yl)-2-pyridyl]-1-[2-oxo-2-[(2R)-2-(trifluoromethyl)morpholin-4-yl]ethyl]benzimidazol-2-one]
A (pIC50>8)	100 to 1000			C[C@@H](CC(F)(F)F)NC(=O)Cn1c(=O)n(-c2ccc(-c3cncc4c3cnn4C)cc2)c2ccccc21 [Example 62, 2-[3-[4-(1-methylpyrazolo[3,4-c]pyridin-4-yl)phenyl]-2-oxo-benzimidazol-1-yl]-N-[(1S)-3,3,3-trifluoro-1-methyl-propyl]acetamide]
		D (pIC50≤6)	100 to 1000	Cn1ncc2c(-c3ccc(-n4c(=O)n(CC(=O)NCC(F)(F)F)c5ccccc54)nc3)cncc21 [Example 63, 2-[3-[5-(1-methylpyrazolo[3,4-c]pyridin-4-yl)-2-pyridyl]-2-oxo-benzimidazol-1-yl]-N-(2,2,2-trifluoroethyl) acetamide]
B (8≥pIC50>7)		D (pIC50≤6)		Cc1cccc2c1n(-c1ccc(-c3cncc4c3cnn4C)cn1)c(=O)n2CC(=O)N[C@@H](C)C(F)(F)F [Example 64, 2-[4-methyl-3-[5-(1-methylpyrazolo[3,4-c]pyridin-4-yl)-2-pyridyl]-2-oxo-benzimidazol-1-yl]-N-[(1S)-2,2,2-trifluoro-1-methyl-ethyl]acetamide]
A (pIC50>8)	100 to 1000			Cn1ncc2c(-c3ccc(-n4c(=O)n(CC(=O)N5CCC[C@H]5C(F)(F)F)c5ccccc54)cn3)cncc21 [Example 65, 1-[6-(1-methylpyrazolo[3,4-c]pyridin-4-yl)-3-pyridyl]-3-[2-oxo-2-[(2S)-2-(trifluoromethyl)pyrrolidin-1-yl]ethyl]benzimidazol-2-one]
		D (pIC50≤6)	10 to 100	Cc1cccc2c1n(-c1ncc(-c3cncc4c3cnn4C)cn1)c(=O)n2CC(=O)NCC(F)(F)F [Example 66, 2-[4-methyl-3-[5-(1-methylpyrazolo[3,4-c]pyridin-4-yl)pyrimidin-2-yl]-2-oxo-benzimidazol-1-yl]-N-(2,2,2-trifluoroethyl)acetamide]
	100 to 1000		10 to 100	Cc1cccc2c1n(-c1ccc(-c3cncc4c3cnn4C)nn1)c(=O)n2CC(=O)NCC(F)(F)F [Example 67, 2-[4-methyl-3-[6-(1-methylpyrazolo[3,4-c]pyridin-4-yl)pyridazin-3-yl]-2-oxo-benzimidazol-1-yl]-N-(2,2,2-trifluoroethyl)acetamide]
A (pIC50>8)	10 to 100			Cc1cccc2c1n(-c1ccc(-c3cncc4[nH]ncc34)nc1)c(=O)n2CC(=O)N[C@@H](C)C(F)(F)F [Example 68, 2-[4-methyl-2-oxo-3-[6-(1H-pyrazolo[3,4-c]pyridin-4-yl)-3-pyridyl]benzimidazol-1-yl]-N-[(1S)-2,2,2-trifluoro-1-methyl-ethyl]acetamide]
A (pIC50>8)	10 to 100			Cc1cccc2c1n(-c1ccc(-c3cncc4[nH]ncc34)cn1)c(=O)n2CC(=O)N[C@@H](C)C(F)(F)F [Example 69, 2-[4-methyl-2-oxo-3-[5-(1H-pyrazolo[3,4-c]pyridin-4-yl)-2-pyridyl]benzimidazol-1-yl]-N-[(1S)-2,2,2-trifluoro-1-methyl-ethyl]acetamide]
A (pIC50>8)	100 to 1000			Cc1cccc2c1n(-c1ccc(-c3cncc4[nH]ncc34)cn1)c(=O)n2CC(=O)N1CCO[C@H](C(F)(F)F)C1 [Example 70, 4-methyl-1-[2-oxo-2-[(2S)-2-(trifluoromethyl)morpholin-4-yl]ethyl]-3-[5-(1H-pyrazolo[3,4-c]pyridin-4-yl)-2-pyridyl]benzimidazol-2-one]
A (pIC50>8)	100 to 1000			Cc1cccc2c1n(-c1ccc(-c3cncc4[nH]ncc34)cn1)c(=O)n2CC(=O)N1CCO[C@@H](C(F)(F)F)C1 [Example 71, 4-methyl-1-[2-oxo-2-[(2R)-2-(trifluoromethyl)morpholin-4-yl]ethyl]-3-[5-(1H-pyrazolo[3,4-c]pyridin-4-yl)-2-pyridyl]benzimidazol-2-one]
A (pIC50>8)	100 to 1000			Cc1cccc2c1n(-c1ccc(-c3cncc4[nH]ncc34)cn1)c(=O)n2CC(=O)NCC(F)(F)F [Example 72, 2-[4-methyl-2-oxo-3-[5-(1H-pyrazolo[3,4-c]pyridin-4-yl)-2-pyridyl]benzimidazol-1-yl]-N-(2,2,2-trifluoroethyl)acetamide]
A (pIC50>8)	100 to 1000			Cc1cccc2c1n(-c1ncc(-c3cncc4[nH]ncc34)cn1)c(=O)n2CC(=O)N[C@@H](C)C(F)(F)F [Example 73, 2-[4-methyl-2-oxo-3-[5-(1H-pyrazolo[3,4-c]pyridin-4-yl)pyrimidin-2-yl]benzimidazol-1-yl]-N-[(1S)-2,2,2-trifluoro-1-methyl-ethyl]acetamide]
		D (pIC50≤6)	10 to 100	Cn1ncc2c(-c3ccc(-n4c(=O)n(CC(=O)NCC(F)(F)F)c5cccc(C#N)c54)cc3)cncc21 [Example 74, 2-[4-cyano-3-[4-(1-methylpyrazolo[3,4-c]pyridin-4-yl)phenyl]-2-oxo-benzimidazol-1-yl]-N-(2,2,2-trifluoroethyl)acetamide]
	100 to 1000		10 to 100	Cc1cccc2c1n(-c1cnc(-c3cncc4c3cnn4C)nc1)c(=O)n2CC(=O)NCC(F)(F)F [Example 75, 2-[4-methyl-3-[2-(1-methylpyrazolo[3,4-c]pyridin-4-yl)pyrimidin-5-yl]-2-oxo-benzimidazol-1-yl]-N-(2,2,2-trifluoroethyl)acetamide]
D (pIC50≤6)		D (pIC50≤6)		Cn1ncc2c(-c3ccc(-n4c(=O)n(CC(=O)NCC(F)(F)F)c5cccnc54)cc3)cncc21 [Example 76, 2-[3-[4-(1-methylpyrazolo[3,4-c]pyridin-4-yl)phenyl]-2-oxo-imidazo[4,5-b]pyridin-1-yl]-N-(2,2,2-trifluoroethyl)acetamide]
D (pIC50≤6)		D (pIC50≤6)		Cn1ncc2c(-c3ccc(-n4c(=O)n(CC(=O)NCC(F)(F)F)c5ccncc54)cc3)cncc21 [Example 77, 2-[3-[4-(1-methylpyrazolo[3,4-c]pyridin-4-yl)phenyl]-2-oxo-imidazo[4,5-c]pyridin-1-yl]-N-(2,2,2-trifluoroethyl)acetamide]
D (pIC50≤6)		D (pIC50≤6)		Cn1ncc2c(-c3ccc(-n4c(=O)n(CC(=O)NCC(F)(F)F)c5cnccc54)cc3)cncc21 [Example 78, 2-[1-[4-(1-methylpyrazolo[3,4-c]pyridin-4-yl)phenyl]-2-oxo-imidazo[4,5-c]pyridin-3-yl]-N-(2,2,2-trifluoroethyl)acetamide]
		D (pIC50≤6)	10 to 100	Cn1ncc2c(-c3ccc(-n4c(=O)n(CC(=O)N5CCC[C@H]5C(F)(F)F)c5cccnc54)cc3)cncc21 [Example 79, 3-[4-(1-methylpyrazolo[3,4-c]pyridin-4-yl)phenyl]-1-[2-oxo-2-[(2S)-2-(trifluoromethyl)pyrrolidin-1-yl]ethyl]imidazo[4,5-b]pyridin-2-one]
